Results as given in patent publication US8858995B2, “Methods and compositions for controlled delivery of phytochemical agents” (priority 2008, dated 2014).
Where two headings read alike, the source gives them in different places.

Key:
[1] = tested on: 17β-estradiol-induced mammary tumors; assay type: in vivo, ACI rats; conditions: for animals that developed palpable tumors: control 100% after 26 wks
Description: Cancer chemoprevention approaches have been used to manipulate tumorigenesis and reduce the transformation of normal/pre-cancerous cells to malignancy. Many compounds that have worked in cell culture studies though have failed in animal models and clinical trials due to lack of bioavailability. Additionally, the high doses required to elicit biological response can be toxic. The following experiments were designed to test the hypothesis that the effective dose of phytochemical agents, administered systemically via implantation of a silastic implant incorporating the agents, can be reduced substantially compared with the traditional dietary route and were also designed to determine the effect of individual phytochemical agents on mammary carcinogenesis. The silastic implants used in the experiments described below were fabricated by filling silastic tubing with a desired agent. Although the silastic implants are not biodegradable like compositions disclosed herein comprising biocompatible polymeric matrices, the silastic implants provide proof of concept that a reduced dose of phytochemical agents administered systemically can be effective in inhibiting mammary carcinogenesis.
Initially, an experiment was performed by subcutaneously implanting individual phytochemical agents using a large number of animals per group (n=17-19). […] Two weeks later, all groups received 3 cm biocompatible silastic implants incorporating 27 mg of 17β-estradiol. Six months later, after all animals had developed mammary tumors, the animals were euthanized and the mammary tumors were counted and their size measured. […] However, 30-55% reductions were found in the tumor burden with all test agents (FIG. 23A) as measured by tumor volume, with ellagic acid resulting in the most significant reduction in tumor burden (55%). The foregoing results thus support the effectiveness of ellagic acid, a significant component in certain berries, as an exemplary phytochemical compound that can be administered via a biocompatible silastic implant to inhibit or reduce estrogen-induced ACI rat mammary carcinogenicity.
To further evaluate the effectiveness of ellagic acid in estrogen-induced mammary carcinogenicity and to determine whether the effective dose of ellagic acid administered systemically via a biocompatible silastic implant can be reduced substantially compared with the traditional dietary route, ellagic acid was administered either in the diet (400 ppm) or by subcutaneous implantation of a biocompatible silastic implant incorporating an effective amount of ellagic acid (27 mg/implant, 4 implants). […] All groups received diet and water ad libitum. The body weight and diet consumption were recorded weekly. The animals were palpated for mammary tumors, and were euthanized when the largest tumor reached >1 cm. The first tumor in the control group appeared after nearly 84 days. However, the first tumor appearance with ellagic acid implants or ellagic acid-supplemented diet was somewhat delayed by 2 and 3 weeks, respectively. The control group reached 100% tumor incidence after 26 wks, but only 75% or 69% of the animals developed palpable tumors in the groups that received ellagic acid by implants or diet, respectively. […] Similar reductions were also observed in the tumor multiplicity (4.00±0.63 and 4.80±0.4 tumors/rat with implant and diet, respectively versus 6.77±0.87 in the control group) (FIG. 24A).
The total amount of ellagic acid administered during the entire duration of the study by diet was 800 mg/rat while the subcutaneous implantation of the biocompatible silastic implant incorporating ellagic acid delivered only 1.48±0.87 mg per implant, as determined by HPLC measurement of the material left in implants recovered after termination.

[2] = tested on: breast cancer incidence; conditions: pre-menopausal women with a family history of breast cancer, high consumption; cited from earlier work
[3] = extruded implants
[4] = tested on: DBP-DNA adducts; test: Dibenzo[a,I]pyrene (DBP)-DNA adducts in lung (32P-postlabeling); assay type: in vivo, A/J mice; conditions: two 1.5 cm coated implants; DBP implant; 3 weeks
Description: (§1) To assess the coated implants (i.e., where the compositions were in the form of coatings), in vivo studies were also performed. […] All groups of animals were also treated with dibenzo[a,I]pyrene (DBP) via polymeric implants (1-cm, 1.4 mm dia, 5% DBP load) at the same time. Implants were grafted subcutaneously, and animal were euthanized after 3 weeks. […] In both cases, animals were euthanized by CO2 asphyxiation and selected tissues (lung, liver and brain) were collected and stored at −80° C. until processing. Implants were also recovered, dried under vacuum and stored in amber vials under argon at 4° C. until analysis.
To analyze the formation of DNA adducts, DNA was isolated from lung tissue (200 mg) by treatment of the isolated crude nuclei with RNases and proteinase K, followed by extractions with phenol, phenol:Sevag and Sevag. DNA was recovered by ethanol precipitation and its concentration was measured spectrophotometrically considering 1 A260 equals 50 μg DNA. DNA adducts were analyzed by nuclease P1-mediated ^32P-postlabeling/TLC assay and expressed as adducts per 10^9 nucleotides.

[5] = tested on: human lung cancer A549 cell xenografts; test: Human lung cancer xenograft inhibition by withaferin A; assay type: in vivo, athymic nude mice
Description: Additionally, to assess the effect of the implants on tumor xenografts, five- to six-week old female athymic nude mice (Harlan Laboratories, Indianapolis, Ind.) were acclimated for a week and then inoculated with human lung cancer (A549) cells (3×10^6 cells) in matrigel. […] Animals were weighed and the tumors were measured by a digital caliper weekly. At the end of 6 to 8 weeks, animals were euthanized by CO2 asphyxiation, tumors were collected and measured.

[6] = Tissue curcuminoid levels after coated implants (UPLC); assay type: in vivo, A/J mice; conditions: female, A/J, mouse
Description: Briefly, liver and brain tissues (500 and 400 mg, respectively) from each animal were homogenized in 3 ml PBS (pH 7.4) containing 200 μl of 0.5 M sodium acetate, and extracted with ethyl acetate. After evaporation of the pooled extracts, the residue was reconstituted in 100 μl acetonitrile and analyzed by UPLC using Shimadzu UPLC system (Kyoto, Japan), with a Shim-Pack XR-ODS II reverse phase column (Shimadzu; 150×3.0 mm i.d., 2.2 μm).

[7] = tested on: DNA adducts in the liver; test: Liver DNA adducts after a bolus dose of dibenzo[a,1]pyrene (32P-postlabeling); assay type: in vivo, Sprague-Dawley rats; conditions: 2 cm PCL:cyclodextrin (9:1) matrix, 10% w/w; bolus dibenzo[a,1]pyrene; 5 days after carcinogen
Description: Eleven days later, the animals were treated with a bolus dose of dibenzo[a,1]pyrene. The animals were then euthanized 5 days after the carcinogen treatment and liver samples were collected.

[8] = mouse, sc
Description: as §1
The supernatants were diluted with ethanol:DCM (80:20) and their concentrations were measured spectrophotometrically at maximal absorbance and the concentrations were calculated against standard curves of individual compounds.

[9] = In vitro release from coated (and extruded) polymeric implants; assay type: physicochemical
Description: To formulate the “coated” polymeric implants, blank P-80 implants (1.4 mm dia) were then prepared by dissolving P-80:F68 (9:1) in dichloromethane, followed by evaporation of the solvent in a Petri dish under hood and extrusion of the molten polymer through a silastic tubing mold, similar to the methodologies described herein above. […] For coating, one end of the blank implant (2.5-3.5 cm) was inserted into a silastic tube plug (6 mm long, 1.4 mm dia) while the other end of the plug was attached with a pipet tip. Coatings were then added by dipping the blank implant into the solution with intermittent drying with cool air using a commercial hair dryer and placing them under hood. […] The assembly was placed under hood overnight to remove the residual DCM, implants were excised in 1 or 2 cm lengths and stored in amber vials under argon at -20° C. until used. The rate of in vitro release for the implants was subsequently measured. […] The vials were placed in a water bath (Julabo S W 23, Seelback, Germany) at 37° C. with constant agitation at 110 rpm. The medium was changed every 24 h.

O=c1oc2c(O)c(O)cc3c(=O)oc4c(O)c(O)cc1c4c23 [ellagic acid]
reduction in tumor burden (tumor volume) ([1]; 3 cm silastic implant, 27 mg agent, six months): 55%
tumor multiplicity ([1]; diet): 4.80±0.4 tumors/rat
delay of first tumor appearance ([1]; diet 400 ppm): 3 weeks
animals that developed palpable tumors ([1]; diet 400 ppm): 69%
tumor burden ([1]; dietary 400 ppm): 269±61 mm^3
tumor multiplicity ([1]; implant): 4.00±0.63 tumors/rat
tumor burden ([1]; implant (slow release)): 454±105 mm^3
animals that developed palpable tumors ([1]; implants): 75%
amount delivered per implant over the study ([1]; rat, in vivo): 1.48±0.87 mg per implant
delay of first tumor appearance ([1]; silastic implants, 27 mg/implant, 4 implants): 2 weeks

vitamin E
reduction in breast cancer incidence [2]: 43%

CC(=O)OC(C)(C)/C=C/C(=O)[C@](C)(O)[C@H]1[C@H](O)C[C@@]2(C)[C@@H]3CC=C4[C@H](C[C@H](O)C(=O)C4(C)C)[C@]3(C)C(=O)C[C@]12C [cucurbitacin B]
burst release and local toxicity [3]: burst release phenomenon and sign of local toxicity

CC1=C(CO)C(=O)O[C@@H]([C@@H](C)[C@H]2CC[C@H]3[C@@H]4C[C@H]5O[C@]56[C@@H](O)C=CC(=O)[C@]6(C)[C@H]4CC[C@]23C)C1 [withaferin A]
lung DBP-DNA adduct levels [4]: reduction in the DNA adduct levels
total dose administered via the implants ([5]; calculated from residual amount in the implants, versus 5.6 mg i.p.): 2.69 mg
reduction in the growth of the tumor ([5]; coated implants, two 1.5-cm, 5% drug load): 51%
body weight versus sham ([5]; end of the 8-week study, implants): essentially the same body weight
reduction of the tumor ([5]; intraperitoneally 4 mg/kg): no reduction
inhibition of the tumor ([5]; intraperitoneally 8 mg/kg on alternate days): 53%
burst release and local toxicity [3]: burst release phenomenon and sign of local toxicity

COc1cc(/C=C/C(O)=C/C(=O)/C=C/c2ccc(O)cc2)ccc1O [curcuminoid II, demethoxycurcumin]
concentration at 21 days ([6]; in vivo): 1 ng/g

Cc1c(-c2cnccn2)ssc1=S [oltipraz]
DNA adducts in the liver [7]: reduced the amount of B[a]P-induced DNA adducts
total release in vivo at the end of 3 weeks [8]: 18.6%
lung DBP-DNA adduct levels [4]: reduction was statistically significant
release in PBS alone ([9]; 37° C., no serum): essentially no release
release kinetics ([9]; PBS with 10% bovine serum, 60 days): essentially zero-order kinetics
cumulative release after 60 days ([9]; in vitro): ~27%
cumulative release over 3 weeks (21 days) ([9]; in vitro, PBS with 10% bovine serum): about 12%

O=C(/C=C/c1ccc(O)cc1)CC(=O)/C=C/c1ccc(O)cc1 [curcuminoid III, bisdemethoxycurcumin]
concentration at 21 days ([6]; brain, subcutaneous, 2 1.5 cm implants (60 mg/implant, approximately 10% drug load), delivered individually by implant, 21 days, read-out: level in brain tissue): 6.4 ng/g
concentration at 21 days ([6]; liver, subcutaneous, 2 1.5 cm implants (60 mg/implant, approximately 10% drug load), delivered individually, two 1.5-cm implants, 21 days, read-out: level in the liver): 5 to 6 ng/g
